Laboratory results published in patent publication US20070264679A1, “Method for analyzing the activity of lipoxygenase using a water-soluble substrate” (Chungnam National University Industry Collaboration …, priority 2006, published 2007).
Blank lines part the entries; values can stand above or below the molecule they belong to.

Experiments:
[1] = biological target: T1, soybean LOX-1 (Glycine max, UniProt P08170); test: Kinetics of oxygenation of arachidonic acid or arachidonoyl-lysophospholipids by soybean LOX-1; type: biochemical; details: soybean LOX-1 2.5 units/ml; for Vm: 50 mM borax buffer pH 9.0, unit = one nanomole conjugated diene per min
T1 construct: purchased Sigma-Aldrich Corp (St. Louis, Mo., USA) lipoxidase Type I-B
T1 sequence (P08170 1-839): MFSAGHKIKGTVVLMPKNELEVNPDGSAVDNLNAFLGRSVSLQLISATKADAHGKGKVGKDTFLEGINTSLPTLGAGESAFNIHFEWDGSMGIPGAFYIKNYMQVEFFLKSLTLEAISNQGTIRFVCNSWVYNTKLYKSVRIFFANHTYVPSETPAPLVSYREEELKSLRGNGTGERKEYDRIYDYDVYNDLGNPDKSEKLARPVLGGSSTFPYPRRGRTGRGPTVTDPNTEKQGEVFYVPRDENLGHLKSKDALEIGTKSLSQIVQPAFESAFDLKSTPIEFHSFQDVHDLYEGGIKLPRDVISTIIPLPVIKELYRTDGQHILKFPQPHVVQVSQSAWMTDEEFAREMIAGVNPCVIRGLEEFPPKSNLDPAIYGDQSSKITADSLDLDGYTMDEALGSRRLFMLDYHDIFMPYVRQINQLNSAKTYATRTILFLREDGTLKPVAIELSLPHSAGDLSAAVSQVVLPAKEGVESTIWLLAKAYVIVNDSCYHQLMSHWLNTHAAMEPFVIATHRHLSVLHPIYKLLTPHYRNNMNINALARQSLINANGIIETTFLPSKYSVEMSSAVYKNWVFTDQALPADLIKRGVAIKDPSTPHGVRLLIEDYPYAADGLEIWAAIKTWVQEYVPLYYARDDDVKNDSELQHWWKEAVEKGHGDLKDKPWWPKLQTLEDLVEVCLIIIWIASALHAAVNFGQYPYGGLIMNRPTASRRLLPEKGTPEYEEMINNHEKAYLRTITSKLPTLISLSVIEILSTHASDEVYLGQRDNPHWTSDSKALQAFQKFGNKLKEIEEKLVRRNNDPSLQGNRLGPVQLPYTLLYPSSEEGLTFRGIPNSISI
Method: (§1) Activities of various LOXs were monitored by measuring the increase in absorbance at 234 nm due to the formation of hydroperoxide (ε234=25,000 M^−1 cm^−1) at 25° C. as described before (Smith et al, J. Biol. Chem. 247 (1972) 1038-1047). One unit is defined as the amount of LOXs that can produce one nanomole of conjugated diene per min. The reaction mixture (500 μl) included reticulocyte LOX (2 units/ml) in 50 mM phosphate buffer (pH 7.4), porcine leukocyte LOX (1 unit/ml) in 100 mM phosphate buffer (pH 7.5) containing 5 mM EDTA and 0.03% Tween 20, or soybean LOX-1 (2.5 units/ml) in 50 mM borax buffer (pH 9.0) at 25° C. The reactions were started by including each substrate (100 μM) into the above reaction mixture.
(§2) Reticulocyte LOX (2 units/ml), leukocyte LOX (1 units/ml) or soybean LOX-1 (2.5 units/ml) was incubated with each arachidonoyl derivative substrate of various concentrations as described above. The values of kinetic parameters were obtained according to Lineweaver Burke plot analyses as described before (Barroso et al, J. Chromatogr. B. Analyt. Technol. Biomed. Life. Sci. 814 (2005) 21-28).

[2] = biological target: T2, Leukocyte 12-lipoxygenase (leukocyte LOX) (Sus scrofa, UniProt P16469); test: Kinetics of oxygenation of arachidonic acid or arachidonoyl-lysophospholipids by leukocyte LOX; type: biochemical, porcine; details: leukocyte LOX 1 unit/ml, 100 mM phosphate buffer pH 7.5, 5 mM EDTA; for Vm: 0.03% Tween 20
T2 construct: purchased Cayman Chemical Co. (Ann Arbor, Mich., USA)
T2 sequence (P16469 1-663): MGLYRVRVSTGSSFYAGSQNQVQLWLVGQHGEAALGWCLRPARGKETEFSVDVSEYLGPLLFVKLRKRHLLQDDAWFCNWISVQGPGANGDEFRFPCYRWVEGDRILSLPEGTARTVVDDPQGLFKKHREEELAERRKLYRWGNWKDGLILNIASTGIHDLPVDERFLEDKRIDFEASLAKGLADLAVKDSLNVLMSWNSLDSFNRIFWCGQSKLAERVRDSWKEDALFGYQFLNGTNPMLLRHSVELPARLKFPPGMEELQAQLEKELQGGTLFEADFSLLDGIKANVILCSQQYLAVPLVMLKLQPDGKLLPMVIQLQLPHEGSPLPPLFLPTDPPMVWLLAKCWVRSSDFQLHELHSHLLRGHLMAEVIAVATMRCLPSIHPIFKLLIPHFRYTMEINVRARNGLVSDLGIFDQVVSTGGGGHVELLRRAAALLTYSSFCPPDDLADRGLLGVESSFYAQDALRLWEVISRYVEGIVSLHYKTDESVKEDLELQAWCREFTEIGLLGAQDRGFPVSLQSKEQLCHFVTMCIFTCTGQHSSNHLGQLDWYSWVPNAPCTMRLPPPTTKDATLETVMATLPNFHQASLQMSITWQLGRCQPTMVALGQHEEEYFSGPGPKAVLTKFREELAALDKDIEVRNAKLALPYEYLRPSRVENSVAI
Method: as §1, §2

[3] = biological target: T3, Rabbit reticulocyte 15-lipoxygenase (reticulocyte LOX) (Oryctolagus cuniculus, UniProt P12530); test: Oxygenation of arachidonoyl lysophospholipids by reticulocyte LOX; type: biochemical; details: reticulocyte LOX 2 units/ml, 50 mM phosphate buffer pH 7.4
T3 construct: purchased Biomol Inc. (Plymouth Meeting, Pa., USA)
T3 sequence (P12530 1-663): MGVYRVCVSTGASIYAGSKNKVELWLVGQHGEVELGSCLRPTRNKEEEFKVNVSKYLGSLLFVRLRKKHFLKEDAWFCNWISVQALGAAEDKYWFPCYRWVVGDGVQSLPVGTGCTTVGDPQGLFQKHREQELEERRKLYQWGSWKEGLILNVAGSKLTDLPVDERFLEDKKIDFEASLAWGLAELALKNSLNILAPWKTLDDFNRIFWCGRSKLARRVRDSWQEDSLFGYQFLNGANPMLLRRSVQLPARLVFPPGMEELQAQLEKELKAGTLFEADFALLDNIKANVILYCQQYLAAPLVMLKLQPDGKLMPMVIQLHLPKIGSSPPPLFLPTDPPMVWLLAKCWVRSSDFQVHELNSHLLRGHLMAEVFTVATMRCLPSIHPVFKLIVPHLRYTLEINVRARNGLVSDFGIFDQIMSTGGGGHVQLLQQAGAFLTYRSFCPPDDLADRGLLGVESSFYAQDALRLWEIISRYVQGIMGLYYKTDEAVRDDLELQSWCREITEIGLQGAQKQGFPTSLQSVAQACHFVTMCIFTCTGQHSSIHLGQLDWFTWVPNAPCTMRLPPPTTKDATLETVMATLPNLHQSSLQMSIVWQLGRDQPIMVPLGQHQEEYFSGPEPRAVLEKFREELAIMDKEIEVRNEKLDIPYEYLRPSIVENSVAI
Method: as §1, §2
It is noteworthy that the efficacy of arachidonoyl-lysoPC as a substrate for leukocyte LOX was approximately 10-fold greater than that of arachidonic acid. In an additional study, the oxygenation of arachidonoyl-lysoPC or arachidonoyl-lysoPA by reticulocyte LOX was examined. […]

[4] = biological target: T4, Reticulocyte LOX (Oryctolagus cuniculus, UniProt P12530); test: Kinetics of oxygenation of linoleoylated substrates by reticulocyte LOX; type: biochemical, Rabbit; details: reticulocyte LOX 8.2 units/ml, 50 mM phosphate buffer pH 7.4, 25° C.
T4 construct: purchased Biomol Inc. (Plymouth Meeting, Pa., USA)
T4 sequence (P12530 1-663): T3 sequence (P12530 1-663)
Excerpt: Data were expressed as means ±S.D. of results from at least three independent experiments.

[5] = biological target: T5, lipoxygenase (Glycine max, UniProt P08170); details: Perez-Gilabert et al. 1998; cited from earlier work
T5 sequence (P08170 1-839): T1 sequence (P08170 1-839)

[6] = biological target: T1, soybean LOX-1; test: Kinetics of oxygenation of docosahexaenoic acid derivatives by soybean LOX-1; type: biochemical; details: soybean LOX-1 2.5 units/ml, 50 mM borax buffer pH 9.0, 25° C.
Method: Soybean LOX-1 (2.5 units/ml) was incubated with docosahexaenoyl-lysoPC, didocosahexaenoyl-lysoPC or docosahexaenoic acid of various concentrations in 500 μl of 50 mM borax buffer (pH 9.0) at 25° C. Values were expressed as means ±S.D. of results from at least three independent experiments.

[7] = biological target: T6, Porcine leukocyte LOX (Sus scrofa, UniProt P16469); test: Kinetics of oxygenation of docosahexaenoyl-lysoPC or docosahexaenoic acid by leukocyte LOX; type: biochemical; details: porcine leukocyte LOX 2 units/ml, 100 mM phosphate buffer pH 7.4, 5 mM EDTA
T6 construct: purchased Cayman Chemical Co. (Ann Arbor, Mich., USA)
T6 sequence (P16469 1-663): T2 sequence (P16469 1-663)
Method: Porcine leukocyte LOX (2 units/ml) was incubated with each substrate docosahexaenoyl-lysoPC or docosahexaenoic acid of various concentrations in 500 μl of 100 mM phosphate buffer (pH 7.4) containing 5 mM EDTA and 0.03% Tween 20 at 25° C.

Km ([1]; 50 mM borax buffer pH 9.0, 25° C.): 15.4 µM
Vm [1]: 147.8 ± 2.3 units/μg
Vm ([1]; listed as arachidonoyl-lysoPA): 147.8 units/μg
Vm [2]: 33.5 ± 2.9 units/mg
Km ([2]; 0.03% Tween 20, 25° C.): 8.6 µM
Vm ([2]; listed as arachidonoyl-lysoPA): 33.5 units/mg
SMILES: CCCCC/C=C\C/C=C\C/C=C\C/C=C\CCCC(=O)OCC(O)COP(=O)(O)O (centres unmarked) [Arachidonoyl-lysoPA, 1-arachidonoyl lysophosphatidic acid]
Vm/Km value in reticulocyte LOX-catalyzed oxygenation compared with arachidonic acid [3]: somewhat greater than that of arachidonic acid

Vm [4]: 646 ± 20 units/mg
Km ([4]; substrate 3-100 μM): 71.7 ± 6.9 µM
SMILES: CCCCC/C=C\C/C=C\CCCCCCCC(=O)OC[C@H](COP(=O)([O-])OCC[N+](C)(C)C)OC(=O)CCCCCCC/C=C\C/C=C\CCCCC [Dilinoleoyl-PC, Dilinoleoyl phosphatidylcholine]
lipoxygenation rate relative to linoleic acid (times slower) [5]: about 4 times

SMILES: CC/C=C\C/C=C\C/C=C\C/C=C\C/C=C\C/C=C\CCC(=O)OCC(O)COP(=O)([O-])OCC[N+](C)(C)C (centres unmarked) [Docosahexaenoyl-lysoPC, 1-docosahexenoyl lysophosphatidylcholine]
Km [6]: 2200 ± 600 nM
Vm [6]: 104.2 ± 5.2 units/μg
Vm ([7]; 0.03% Tween 20): 77.2 ± 2.8 units/mg
Km ([7]; 0.03% Tween 20, 25° C.): 3.4 ± 1.8 µM
